Reference: ChEMBL document CHEMBL4627323, “Synthesis and anti-OXPHOS, antitumor activities of DLC modified spinosyn derivatives” (Bioorg Med Chem Lett, 2020)
Activity calls are given as the source filed them. No cut-off for these calls is given here.

Tests used:
NCI-H460 [1] = test: Induction of apoptosis in human NCI-H460 cells assessed as viable cells at 2 uM by Annexin V/PI staining based flow cytometric analysis (reference value: 95.3%); format: functional; details: read-out: Activity
NCI-H460 [2] = test: Antiproliferative activity against human NCI-H460 cells incubated for 48 hrs; format: functional, cell-based; details: NCI-H460, 48 h
NCI-H460 [3] = test: Induction of apoptosis in human NCI-H460 cells assessed as late apoptotic cells at 4 uM by Annexin V/PI staining based flow cytometric analysis (reference value: 1.17%); format: functional
MCF7 = test: Antiproliferative activity against human MCF7 cells incubated for 48 hrs; format: functional, cell-based; details: MCF7, 48 h
NCI-H460 [4] = test: Antiproliferative activity against human NCI-H460 cells assessed as inhibition of cell growth at 32 uM incubated for 3 hrs; format: functional, cell-based
[5] = Toxicity in nude mouse xenografted with human NCI-H460 cells assessed as body weight loss at 2.5 to 5 mg/kg, ip administered every other day for 21 days; format: organism-based; details: in vivo, 504 h
NCI-H460 [6] = test: Induction of apoptosis in human NCI-H460 cells assessed as late apoptotic cells at 2 uM by Annexin V/PI staining based flow cytometric analysis (reference value: 1.17%); format: functional
NCI-H460 [7] = test: Anti-OXPHOS activity in human NCI-H460 cells assessed as inhibition of oxygen consumption rate at 8 uM in presence of uncoupling agent, FCCP by seahorse XFe96 analyser based assay
NCI-H460 [8] = test: Antitumor activity against human NCI-H460 cells xenografted in nude mouse assessed as decrease in tumor volume at 2.5 mg/kg, ip administered every other day for 21 days measured every 3 days; format: functional, organism-based
NCI-H460 [9] = test: Induction of apoptosis in human NCI-H460 cells by Annexin V/PI staining based flow cytometric analysis; format: functional, cell-based
NCI-H460 [10] = test: Induction of apoptosis in human NCI-H460 cells assessed as viable cells at 4 uM by Annexin V/PI staining based flow cytometric analysis (reference value: 95.3%); format: functional; details: read-out: Activity
NCI-H460 [11] = test: Anti-OXPHOS activity in human NCI-H460 cells assessed as inhibition of oxygen consumption rate at 4 uM incubated for 1 hr by seahorse XFe96 analyser based assay relative to control
NCI-H460 [12] = test: Anti-OXPHOS activity in human NCI-H460 cells assessed as inhibition of oxygen consumption rate at 8 uM by seahorse XFe96 analyser based assay
HCT-116 = test: Antiproliferative activity against human HCT116 cells incubated for 48 hrs; format: functional, cell-based; details: HCT-116, 48 h
NCI-H460 [13] = test: Induction of apoptosis in human NCI-H460 cells assessed as early apoptotic cells at 2 uM by Annexin V/PI staining based flow cytometric analysis (reference value: […]); format: functional
NCI-H460 [14] = test: Anti-OXPHOS activity in human NCI-H460 cells assessed as inhibition of mitochondrial oxidative phosphorylation by seahorse XFe96 analyser based assay; details: Mitochondria
NCI-H460 [15] = test: Induction of apoptosis in human NCI-H460 cells assessed as early apoptotic cells at 4 uM by Annexin V/PI staining based flow cytometric analysis (reference value: […]); format: functional
NCI-H460 [16] = test: Induction of apoptosis in human NCI-H460 cells assessed as necrotic cells at 2 uM by Annexin V/PI staining based flow cytometric analysis (reference value: 2.75%); format: functional
[17] = Toxicity in nude mouse xenografted with human NCI-H460 cells assessed as mortality at 5 mg/kg, ip administered every other day for 21 days; format: organism-based; details: in vivo, 504 h
NCI-H460 [18] = test: Antitumor activity against human NCI-H460 cells xenografted in nude mouse assessed as inhibition of tumor mass at 2.5 mg/kg, ip administered every other day for 21 days measured every 3 days; format: functional
U-87 MG = test: Antiproliferative activity against human U87MG cells incubated for 48 hrs; format: functional, cell-based, U-87MG ATCC
NCI-H460 [19] = test: Induction of apoptosis in human NCI-H460 cells assessed as necrotic cells at 4 uM by Annexin V/PI staining based flow cytometric analysis (reference value: 2.75%); format: functional
NCI-H460 [20] = test: Antitumor activity against human NCI-H460 cells xenografted in nude mouse assessed as decrease in tumor volume at 5 mg/kg, ip administered every other day for 21 days measured every 3 days; format: functional, organism-based
[21] = Toxicity in nude mouse xenografted with human NCI-H460 cells assessed as body weight loss at 5 to 10 mg/kg, ip administered every other day for 21 days; format: organism-based; details: in vivo, 504 h
NCI-H460 [22] = test: Antitumor activity against human NCI-H460 cells xenografted in nude mouse assessed as inhibition of tumor mass at 5 mg/kg, ip administered every other day for 21 days measured every 3 days; format: functional
[23] = Toxicity in nude mouse xenografted with human NCI-H460 cells assessed as mortality at 10 mg/kg, ip administered every other day for 21 days; format: organism-based; details: in vivo, 504 h
NCI-H460 [24] = test: Inhibition of F0 subunit in F0F1 ATP synthase in human NCI-H460 cells assessed as inhibition of oxygen consumption rate at 1 uM by seahorse XFe96 analyser based assay; format: cell-based

CC[C@H]1CCC[C@H](O[C@H]2CC[C@H](N(C)CCCCCC[P+](c3ccccc3)(c3ccccc3)c3ccccc3)[C@@H](C)O2)[C@@H](C)C(=O)C2=C[C@@H]3[C@@H](C=C[C@@H]4C[C@@H](O[C@@H]5O[C@@H](C)[C@H](OC)[C@@H](OC)[C@H]5OC)C[C@@H]34)[C@@H]2CC(=O)O1.[Br-]
viability at 2 µM (NCI-H460 [1]): 74.8%
IC50 (NCI-H460 [2]): 1.6 µM
Activity (NCI-H460 [3]): 6.99%
IC50 (MCF7): 2 µM
inhibition (NCI-H460 [4]): inactive
Activity [5]: Non-Toxic
Activity (NCI-H460 [6]): 3.91%
inhibition (NCI-H460 [7]): inactive
inhibition (NCI-H460 [8]): Active
Activity (NCI-H460 [9]): Dose-dependent effect
viability at 4 µM (NCI-H460 [10]): 69.3%
inhibition (NCI-H460 [11]): 42%
inhibition (NCI-H460 [12]): Active
IC50 (HCT-116): 0.3 µM
Activity (NCI-H460 [13]): 19.9%
inhibition (NCI-H460 [14]): Dose-dependent effect
Activity (NCI-H460 [15]): 22%
Activity (NCI-H460 [16]): 1.38%
Activity [17]: Toxic
inhibition in vivo at 2.5 mg/kg (NCI-H460 [18]): 14.6%
IC50 (U-87 MG): 1.3 µM
Activity (NCI-H460 [19]): 1.69%

CC[C@H]1CCC[C@H](OC(=O)C[n+]2ccccc2)[C@@H](C)C(=O)C2=C[C@@H]3[C@@H](C=C[C@@H]4C[C@@H](O[C@@H]5O[C@@H](C)[C@H](OC)[C@@H](OC)[C@H]5OC)C[C@@H]34)[C@@H]2CC(=O)O1
IC50 (MCF7): > 100 µM

CC[C@H]1CCC[C@H](O[C@H]2CC[C@H](N(C)C)[C@@H](C)O2)[C@@H](C)C(=O)C2=C[C@@H]3[C@@H](C=C[C@@H]4C[C@@H](O[C@@H]5O[C@@H](C)[C@H](OC)[C@@H](OC)[C@H]5OC)C[C@@H]34)[C@@H]2CC(=O)O1 [SPINOSYN A]
IC50 (NCI-H460 [2]): 67.5 µM
IC50 (MCF7): 17.9 µM
IC50 (HCT-116): 11.1 µM
IC50 (U-87 MG): 96.5 µM

CC[C@H]1CCC[C@H](OC(=O)C[n+]2cccc(C(N)=O)c2)[C@@H](C)C(=O)C2=C[C@@H]3[C@@H](C=C[C@@H]4C[C@@H](O[C@@H]5O[C@@H](C)[C@H](OC)[C@@H](OC)[C@H]5OC)C[C@@H]34)[C@@H]2CC(=O)O1
IC50 (MCF7): > 100 µM

CC[C@H]1CCC[C@H](OC(=O)CCC[n+]2cccc(C(N)=O)c2)[C@@H](C)C(=O)C2=C[C@@H]3[C@@H](C=C[C@@H]4C[C@@H](O[C@@H]5O[C@@H](C)[C@H](OC)[C@@H](OC)[C@H]5OC)C[C@@H]34)[C@@H]2CC(=O)O1
IC50 (MCF7): > 100 µM

CC[C@H]1CCC[C@H](OC(=O)CCC[P+](c2ccccc2)(c2ccccc2)c2ccccc2)[C@@H](C)C(=O)C2=C[C@@H]3[C@@H](C=C[C@@H]4C[C@@H](O[C@@H]5O[C@@H](C)[C@H](OC)[C@@H](OC)[C@H]5OC)C[C@@H]34)[C@@H]2CC(=O)O1
IC50 (NCI-H460 [2]): 1.5 µM
IC50 (MCF7): 3.1 µM
IC50 (HCT-116): 0.8 µM
IC50 (U-87 MG): 2.7 µM

CC[C@H]1CCC[C@H](O[C@H]2CC[C@H](N(C)CCCCCC[n+]3cccc(C(N)=O)c3)[C@@H](C)O2)[C@@H](C)C(=O)C2=C[C@@H]3[C@@H](C=C[C@@H]4C[C@@H](O[C@@H]5O[C@@H](C)[C@H](OC)[C@@H](OC)[C@H]5OC)C[C@@H]34)[C@@H]2CC(=O)O1
IC50 (MCF7): 30.5 µM

CC[C@H]1CCC[C@H](O[C@H]2CC[C@H](N(C)CCCCCC[n+]3ccccc3)[C@@H](C)O2)[C@@H](C)C(=O)C2=C[C@@H]3[C@@H](C=C[C@@H]4C[C@@H](O[C@@H]5O[C@@H](C)[C@H](OC)[C@@H](OC)[C@H]5OC)C[C@@H]34)[C@@H]2CC(=O)O1
IC50 (NCI-H460 [2]): 22 µM
IC50 (MCF7): 4.3 µM
IC50 (HCT-116): 9.8 µM
IC50 (U-87 MG): 11.2 µM

CC[C@H]1CCC[C@H](O[C@H]2CC[C@H](N(C)CCC[n+]3ccccc3)[C@@H](C)O2)[C@@H](C)C(=O)C2=C[C@@H]3[C@@H](C=C[C@@H]4C[C@@H](O[C@@H]5O[C@@H](C)[C@H](OC)[C@@H](OC)[C@H]5OC)C[C@@H]34)[C@@H]2CC(=O)O1
IC50 (MCF7): 23.7 µM

CC[C@H]1CCC[C@H](O[C@H]2CC[C@H](N(C)CCC[n+]3cccc(C(N)=O)c3)[C@@H](C)O2)[C@@H](C)C(=O)C2=C[C@@H]3[C@@H](C=C[C@@H]4C[C@@H](O[C@@H]5O[C@@H](C)[C@H](OC)[C@@H](OC)[C@H]5OC)C[C@@H]34)[C@@H]2CC(=O)O1
IC50 (MCF7): > 100 µM

CC[C@H]1CCC[C@H](O[C@H]2CC[C@H](N(C)CCCCCC[n+]3ccc4ccccc4c3)[C@@H](C)O2)[C@@H](C)C(=O)C2=C[C@@H]3[C@@H](C=C[C@@H]4C[C@@H](O[C@@H]5O[C@@H](C)[C@H](OC)[C@@H](OC)[C@H]5OC)C[C@@H]34)[C@@H]2CC(=O)O1.[Br-]
viability at 2 µM (NCI-H460 [1]): 84.4%
IC50 (NCI-H460 [2]): 4.6 µM
Activity (NCI-H460 [3]): 6.98%
IC50 (MCF7): 8.9 µM
inhibition (NCI-H460 [4]): inactive
Activity (NCI-H460 [6]): 5.01%
inhibition (NCI-H460 [7]): inactive
Activity (NCI-H460 [9]): Dose-dependent effect
viability at 4 µM (NCI-H460 [10]): 70.7%
inhibition (NCI-H460 [11]): 41%
inhibition (NCI-H460 [12]): Active
IC50 (HCT-116): 2.8 µM
Activity (NCI-H460 [13]): 9.36%
inhibition (NCI-H460 [14]): Dose-dependent effect
Activity (NCI-H460 [15]): 20.7%
inhibition (NCI-H460 [20]): Active
Activity [21]: Non-Toxic
Activity (NCI-H460 [16]): 1.21%
inhibition in vivo at 5 mg/kg (NCI-H460 [22]): 8.8%
IC50 (U-87 MG): 2.5 µM
Activity [23]: Toxic
Activity (NCI-H460 [19]): 1.58%

CC[C@H]1/C=C/C=C/C[C@@H](C)[C@H](O)[C@@](C)(O)C(=O)[C@@H](C)[C@H](O)[C@@H](C)C(=O)[C@@H](C)[C@H](O)[C@@H](C)/C=C/C(=O)O[C@@H]2[C@H](C)[C@H](CC1)O[C@]1(CC[C@H](C)[C@H](C[C@@H](C)O)O1)[C@H]2C
inhibition (NCI-H460 [24]): Active

CC[C@H]1CCC[C@H](OC(=O)CCC[n+]2ccccc2)[C@@H](C)C(=O)C2=C[C@@H]3[C@@H](C=C[C@@H]4C[C@@H](O[C@@H]5O[C@@H](C)[C@H](OC)[C@@H](OC)[C@H]5OC)C[C@@H]34)[C@@H]2CC(=O)O1
IC50 (MCF7): > 100 µM

CC[C@H]1CCC[C@H](O[C@H]2CC[C@H](N(C)CCC[P+](c3ccccc3)(c3ccccc3)c3ccccc3)[C@@H](C)O2)[C@@H](C)C(=O)C2=C[C@@H]3[C@@H](C=C[C@@H]4C[C@@H](O[C@@H]5O[C@@H](C)[C@H](OC)[C@@H](OC)[C@H]5OC)C[C@@H]34)[C@@H]2CC(=O)O1
IC50 (NCI-H460 [2]): 2.7 µM
IC50 (MCF7): 4.1 µM
IC50 (HCT-116): 0.1 µM
IC50 (U-87 MG): 1.3 µM
